This note sets out measurements from PubChem BioAssay AID1259407 (Chemical Carcinogenesis Research Information System (CCRIS), 2018).

Structures are written as SMILES. Active and inactive are the calls of the source. The rule behind the calls is not given here.

For this series, the system named is CCRIS mutagenicity, Ames/micronucleus/aberration tests. Nature of the series: CCRIS mutagenicity studies.
[1] abbreviates: Test System: AMES SALMONELLA TYPHIMURIUM, Strain/Indicator: TA98, Metabolic Activation: NONE, Method: STANDARD PLATE.
Where [2] appears, read: Test System: AMES SALMONELLA TYPHIMURIUM, Strain/Indicator: TA98, Metabolic Activation: RAT, LIVER, S-9, AROCLOR 1254, Method: STANDARD PLATE.
The mark [3] stands for this setting: Test System: AMES SALMONELLA TYPHIMURIUM, Strain/Indicator: TA100, Metabolic Activation: NONE, Method: STANDARD PLATE.
[4] abbreviates: Test System: AMES SALMONELLA TYPHIMURIUM, Strain/Indicator: TA100, Metabolic Activation: RAT, LIVER, S-9, AROCLOR 1254, Method: STANDARD PLATE.
[5] abbreviates: Test System: AMES SALMONELLA TYPHIMURIUM, Strain/Indicator: TA1535, Metabolic Activation: NONE, Method: STANDARD PLATE.
Setting [6] is: Test System: AMES SALMONELLA TYPHIMURIUM, Strain/Indicator: TA1535, Metabolic Activation: RAT, LIVER, S-9, AROCLOR 1254, Method: STANDARD PLATE.
Where [7] appears, read: Test System: AMES SALMONELLA TYPHIMURIUM, Strain/Indicator: TA1537, Metabolic Activation: NONE, Method: STANDARD PLATE.
[8] abbreviates: Test System: AMES SALMONELLA TYPHIMURIUM, Strain/Indicator: TA1537, Metabolic Activation: RAT, LIVER, S-9, AROCLOR 1254, Method: STANDARD PLATE.

Consider `C=CC(=O)OCCCCOC(=O)C=C`, for which the mutagenic call is “inactive; negative” under setting [1]; “inactive; negative” under setting [2]; “inactive; negative” (Test System: AMES SALMONELLA TYPHIMURIUM, Strain/Indicator: TA98, Metabolic Activation: RAT, LIVER, S-9, SODIUM PHENOBARBITAL, Method: STANDARD PLATE); “inactive; negative” under setting [3]; “inactive; negative” under setting [4]; “inactive; negative” (Test System: AMES SALMONELLA TYPHIMURIUM, Strain/Indicator: TA100, Metabolic Activation: RAT, LIVER, S-9, SODIUM PHENOBARBITAL, Method: STANDARD PLATE). In addition, the mutagenic call under setting [5] was “inactive; negative”; the mutagenic call under setting [6] was “inactive; negative”; the mutagenic call (Test System: AMES SALMONELLA TYPHIMURIUM, Strain/Indicator: TA1535, Metabolic Activation: RAT, LIVER, S-9, SODIUM PHENOBARBITAL, Method: STANDARD PLATE) is “inactive; negative”; the mutagenic call under setting [7] is “inactive; negative”; the mutagenic call under setting [8] was “inactive; negative”; the mutagenic call (Test System: AMES SALMONELLA TYPHIMURIUM, Strain/Indicator: TA1537, Metabolic Activation: RAT, LIVER, S-9, SODIUM PHENOBARBITAL, Method: STANDARD PLATE) was “inactive; negative”. For the same molecule, the mutagenic call was “inactive; negative” (Test System: AMES SALMONELLA TYPHIMURIUM, Strain/Indicator: TA1538, Metabolic Activation: NONE, Method: STANDARD PLATE); “inactive; negative” (Test System: AMES SALMONELLA TYPHIMURIUM, Strain/Indicator: TA1538, Metabolic Activation: RAT, LIVER, S-9, AROCLOR 1254, Method: STANDARD PLATE); “inactive; negative” (Test System: AMES SALMONELLA TYPHIMURIUM, Strain/Indicator: TA1538, Metabolic Activation: RAT, LIVER, S-9, SODIUM PHENOBARBITAL, Method: STANDARD PLATE).
`COc1cc(OC)nc(NC(=O)NS(=O)(=O)c2ncccc2C(=O)N(C)C)n1`: the mutagenic call was “inactive; negative” (Test System: Chinese hamster lung cells, Strain/Indicator: V79 (HPRT)/6-Thioguanine, Metabolic Activation: None, Method: Standard plate?); “inactive; negative” (Test System: Chinese hamster lung cells, Strain/Indicator: V79 (HPRT)/6-Thioguanine, Metabolic Activation: S-9, Method: Standard plate?); “inactive; negative” (Test System: TA97, Metabolic Activation: None, Method: Preincubation?); “inactive; negative” (Test System: TA97, Metabolic Activation: S-9, Method: Preincubation?); “inactive; negative” (Test System: TA98, Metabolic Activation: None, Method: Preincubation?); “inactive; negative” (Test System: TA98, Metabolic Activation: S-9, Method: Preincubation?). In addition, the mutagenic call was “inactive; negative” (Test System: TA100, Metabolic Activation: None, Method: Preincubation?); “inactive; negative” (Test System: TA100, Metabolic Activation: S-9, Method: Preincubation?); “inactive; negative” (Test System: TA102, Metabolic Activation: None, Method: Preincubation?); “inactive; negative” (Test System: TA102, Metabolic Activation: S-9, Method: Preincubation?).
Consider `CC(=O)Nc1ccc(S(=O)(=O)O)c2cc(S(=O)(=O)O)c(N=Nc3ccc(N=Nc4ccc(S(=O)(=O)O)cc4)c4ccc(S(=O)(=O)O)cc34)c(O)c12`, for which the mutagenic call by setting is: (Test System: AMES SALMONELLA TYPHIMURIUM, Strain/Indicator: TA98, Metabolic Activation: HAMSTER, LIVER, S-9, AROCLOR 1254, Method: STANDARD PLATE) “inactive; negative”; under setting [1], “inactive; negative”; under setting [2], “inactive; negative”; (Test System: AMES SALMONELLA TYPHIMURIUM, Strain/Indicator: TA100, Metabolic Activation: HAMSTER, LIVER, S-9, AROCLOR 1254, Method: STANDARD PLATE) “inactive; negative”; under setting [3], “inactive; negative”; under setting [4], “inactive; negative”. Also, the mutagenic call was “inactive; negative” (Test System: AMES SALMONELLA TYPHIMURIUM, Strain/Indicator: TA1535, Metabolic Activation: HAMSTER, LIVER, S-9, AROCLOR 1254, Method: STANDARD PLATE); “inactive; negative” under setting [5]; “inactive; negative” under setting [6]; “inactive; negative” (Test System: AMES SALMONELLA TYPHIMURIUM, Strain/Indicator: TA1537, Metabolic Activation: HAMSTER, LIVER, S-9, AROCLOR 1254, Method: STANDARD PLATE); “inactive; negative” under setting [7]; “inactive; negative” under setting [8]. Further, the mutagenic call runs as follows: (Test System: MOUSE LYMPHOMA, Strain/Indicator: L5178Y (TK+/TK-), Metabolic Activation: NONE, Method: SUSPENSION/PLATE) “inactive; negative. reevaluation of results: negative”; (Test System: MOUSE LYMPHOMA, Strain/Indicator: L5178Y (TK+/TK-), Metabolic Activation: RAT, LIVER, S-9, AROCLOR 1254, Method: SUSPENSION/PLATE) “active; positive. reevaluation of results: equivocal”.
With `CN[C@H]1[C@@H](O[C@@H]2C3CC#CC4O[C@@]4(C4COC(=O)O4)C#CC3=C[C@H]2OC(=O)c2c(O)ccc3c(C)cc(OC)cc23)O[C@H](C)[C@H](O)[C@@H]1O` (stereo partly drawn), the mutagenic call is “inactive; negative” under setting [1]; “inactive; negative” under setting [3]; “active; positive” (Test System: CHINESE HAMSTER OVARY, Strain/Indicator: CHO-D422 (APRT)/8-AZAADENINE, Metabolic Activation: NONE); “active; positive” (Test System: CHINESE HAMSTER OVARY, Strain/Indicator: CHO-K1/6-THIOGUANINE, Metabolic Activation: NONE); “active; positive” (Test System: E. COLI, Strain/Indicator: WP2 (HCR), Metabolic Activation: NONE, Method: STANDARD PLATE); “active; positive” (Test System: E. COLI, Strain/Indicator: WP2, Metabolic Activation: NONE, Method: PREINCUBATION). In addition, the mutagenic call runs as follows: (Test System: E. COLI, Strain/Indicator: WP2, Metabolic Activation: NONE, Method: SPOT) “active; positive”; (Test System: E. COLI, Strain/Indicator: WP2 UVRA, Metabolic Activation: NONE, Method: PREINCUBATION) “active; positive”; (Test System: E. COLI, Strain/Indicator: WP2 UVRA, Metabolic Activation: NONE, Method: SPOT) “active; positive”; (Test System: UDS HUMAN CELLS, Strain/Indicator: THY INCORP (NON-S-PHASE), Metabolic Activation: NONE, Method: AUTORADIOGRAPHY) “active; positive”; (Test System: UDS HUMAN CELLS, Strain/Indicator: THY INCORP (NON-S-PHASE), Metabolic Activation: NONE, Method: LIQUID SCINTILLATION COUNTING) “active; positive”.
In the case of `Nc1ccc(-c2ccc([N+](=O)[O-])cc2N)c([N+](=O)[O-])c1`, the mutagenic call is “active; positive” (Test System: AMES SALMONELLA TYPHIMURIUM, Strain/Indicator: TA98, Metabolic Activation: NONE, Method: PREINCUBATION) and “active; positive” (Test System: AMES SALMONELLA TYPHIMURIUM, Strain/Indicator: TA98, Metabolic Activation: RAT, LIVER, S-9, KANECHLOR 500, Method: PREINCUBATION).
As to `c1cnc2c(c1)ccc1ncccc12`, under “Test System: AMES SALMONELLA TYPHIMURIUM, Strain/Indicator: TA100, Metabolic Activation: RAT, LIVER, S-9, PHENOBARBITAL AND 5,6-BENZOFLAVONE, Method: PREINCUBATION”, the mutagenic call is “active; positive”.
